Laboratory results from patent publication US8940742B2, “Heterocyclic compounds and uses thereof” (Infinity Pharmaceuticals, Inc., priority 2012, dated 2015).
pIC50: −log10 of the molar value.

The molecules below were run against T1, PI3K α (Homo sapiens, UniProt P42336) (assay: PI3-Kinase Promega ADP-Glo Max assay). Settings: 20 nM kinase, 3 mM ATP, 500 uM diC8-PtdInsP.
T1 construct: purchased Millipore
Format: biochemical
Method: (§1) Promega ADP-Glo Max assay kit (Cat. No. V7002) was utilized to determine IC50 values for α, β, δ and γ isoforms of human Class I PI3 kinases (Millipore). Samples of kinase (20 nM α or δ, 40 nM β or γ isoform) were incubated with compound for 15 minutes at room temperature in reaction buffer (15 mM HEPES pH 7.4, 20 mM NaCl, 1 mM EGTA, 0.02% Tween 20, 10 mM MgCl2, 0.2 mg/mL bovine-γ-globulins) followed by addition of ATP/diC8-PtdInsP mixture to give final concentrations of 3 mM ATP and 500 uM diC8-PtdInsP. Reactions were incubated at room temperature for 2 hours followed by addition of 25 uL of stop solution. After a 40-minute incubation at room temperature, 50 uL of Promega detection mix was added followed by incubation for 1 hour at room temperature. Plates were then read on Envision plate reader in luminescence mode. Data was converted to % inhibition using the following equation below:
(§2) [formula] where S is the sample luminescence, Pos is a positive control without added PI3K, Neg is the negative control without added compound. Data was then plotted as % inhibition vs compound concentration. Data fit to 4 parameter logistic equation to determine IC50 values: […]
(§3) Certain compounds provided herein were tested in PI3-Kinase Promega Assay using procedures as described above to determine IC50 values for α, β, δ and/or γ isoforms.

| pIC50 | Structure (SMILES) |
| --- | --- |
| 5.00 to 6.00 | C[C@H](NC(=O)c1c(N)nn2cccnc12)c1cc2cccc(F)c2c(=O)n1-c1ccccc1 [Compound 191] |
| 5.00 to 6.00 | C[C@H](NC(=O)c1c(N)nn2cccnc12)c1cc2cccc(Cl)c2c(=O)n1C1CCCCC1 [Compound 196] |
| 5.00 to 6.00 | C[C@H](NC(=O)c1c(N)nn2cccnc12)c1cc2cccc(-c3ccncc3)c2c(=O)n1-c1ccccc1 [Compound 117] |
| 5.00 to 6.00 | COc1ncc(-c2cccc3cc([C@H](C)NC(=O)c4c(N)nn5cccnc45)n(-c4ccccc4)c(=O)c23)cn1 [Compound 128] |
| 6.00 to 7.00 | C[C@H](NC(=O)c1nc(-c2cccc(NS(C)(=O)=O)c2)cnc1N)c1cc2cccc(Cl)c2c(=O)n1C [Compound 183] |
| < 5.00 | Cc1cnc(C(=O)N[C@@H](C)c2cc3cccc(C(F)(F)F)c3c(=O)n2-c2ccccc2)c(N)n1 [Compound 80] |
| < 5.00 | C[C@H](NC(=O)c1cncc2cccnc12)c1cc2cccc(Cl)c2c(=O)n1-c1ccccc1 [Compound 45] |

Each molecule was assayed against T2, PI3K β (Homo sapiens, UniProt P42338) (assay: PI3-Kinase Promega ADP-Glo Max assay). Settings: 40 nM kinase, 3 mM ATP, 500 uM diC8-PtdInsP.
T2 construct: purchased Millipore
Format: biochemical
Method: as §1, §2, §3

T2 sequence (P42338 whole entry): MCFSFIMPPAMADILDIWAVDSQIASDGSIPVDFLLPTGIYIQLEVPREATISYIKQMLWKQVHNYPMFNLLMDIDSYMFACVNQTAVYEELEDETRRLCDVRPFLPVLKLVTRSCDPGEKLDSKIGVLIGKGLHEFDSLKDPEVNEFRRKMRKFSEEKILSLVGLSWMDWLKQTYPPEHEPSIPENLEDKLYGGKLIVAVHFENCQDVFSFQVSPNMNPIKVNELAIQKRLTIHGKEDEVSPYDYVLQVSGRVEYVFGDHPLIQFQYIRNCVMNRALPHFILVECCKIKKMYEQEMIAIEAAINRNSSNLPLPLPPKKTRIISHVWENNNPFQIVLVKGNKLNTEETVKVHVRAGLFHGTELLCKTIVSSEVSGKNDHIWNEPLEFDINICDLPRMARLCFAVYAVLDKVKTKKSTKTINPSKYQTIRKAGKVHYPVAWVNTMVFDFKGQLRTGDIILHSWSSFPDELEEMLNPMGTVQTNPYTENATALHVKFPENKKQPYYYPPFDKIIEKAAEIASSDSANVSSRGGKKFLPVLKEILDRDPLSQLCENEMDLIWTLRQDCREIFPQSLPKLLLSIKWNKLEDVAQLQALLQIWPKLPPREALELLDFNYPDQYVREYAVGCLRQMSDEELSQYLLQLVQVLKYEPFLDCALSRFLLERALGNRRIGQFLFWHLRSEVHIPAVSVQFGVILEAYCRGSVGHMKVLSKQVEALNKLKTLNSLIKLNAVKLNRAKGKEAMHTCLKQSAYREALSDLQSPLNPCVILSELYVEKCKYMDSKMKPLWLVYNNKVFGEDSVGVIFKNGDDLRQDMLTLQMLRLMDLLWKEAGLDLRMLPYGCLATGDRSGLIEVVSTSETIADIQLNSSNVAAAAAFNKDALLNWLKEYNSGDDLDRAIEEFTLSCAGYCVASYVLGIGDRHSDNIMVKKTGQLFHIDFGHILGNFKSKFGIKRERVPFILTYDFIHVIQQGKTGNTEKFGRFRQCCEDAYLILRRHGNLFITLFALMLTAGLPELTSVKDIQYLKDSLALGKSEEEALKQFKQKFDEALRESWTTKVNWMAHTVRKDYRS
T2 sequence (P27986 whole entry partner): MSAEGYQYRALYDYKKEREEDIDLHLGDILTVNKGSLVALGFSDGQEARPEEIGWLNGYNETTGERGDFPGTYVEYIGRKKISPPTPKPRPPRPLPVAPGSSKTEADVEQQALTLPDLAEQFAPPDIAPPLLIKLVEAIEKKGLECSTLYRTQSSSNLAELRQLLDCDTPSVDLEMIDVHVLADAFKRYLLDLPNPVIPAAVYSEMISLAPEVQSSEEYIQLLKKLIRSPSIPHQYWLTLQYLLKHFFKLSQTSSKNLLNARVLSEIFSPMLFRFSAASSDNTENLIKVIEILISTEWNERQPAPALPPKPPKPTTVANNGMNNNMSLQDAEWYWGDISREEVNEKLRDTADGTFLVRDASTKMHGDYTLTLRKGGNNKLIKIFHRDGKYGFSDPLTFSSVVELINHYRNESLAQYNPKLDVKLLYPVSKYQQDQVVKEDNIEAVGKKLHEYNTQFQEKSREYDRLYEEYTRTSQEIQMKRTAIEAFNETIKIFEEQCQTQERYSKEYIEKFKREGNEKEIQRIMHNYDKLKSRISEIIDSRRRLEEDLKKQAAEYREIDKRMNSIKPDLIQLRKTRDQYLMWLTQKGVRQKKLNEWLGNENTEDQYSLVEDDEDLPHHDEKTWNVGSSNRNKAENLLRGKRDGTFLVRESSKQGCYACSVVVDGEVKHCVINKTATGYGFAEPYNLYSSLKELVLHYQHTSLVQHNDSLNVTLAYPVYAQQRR

| pIC50 | Structure (SMILES) |
| --- | --- |
| 6.00 to 7.00 | C[C@H](NC(=O)c1c(N)nn2cccnc12)c1cc2cccc(F)c2c(=O)n1-c1ccccc1 [Compound 191] |
| 5.00 to 6.00 | C[C@H](NC(=O)c1c(N)nn2cccnc12)c1cc2cccc(Cl)c2c(=O)n1C1CCCCC1 [Compound 196] |
| < 5.00 | C[C@H](NC(=O)c1c(N)nn2cccnc12)c1cc2cccc(-c3ccncc3)c2c(=O)n1-c1ccccc1 [Compound 117] |
| 5.00 to 6.00 | COc1ncc(-c2cccc3cc([C@H](C)NC(=O)c4c(N)nn5cccnc45)n(-c4ccccc4)c(=O)c23)cn1 [Compound 128] |
| > 7.00 | C[C@H](NC(=O)c1nc(-c2cccc(NS(C)(=O)=O)c2)cnc1N)c1cc2cccc(Cl)c2c(=O)n1C [Compound 183] |
| < 5.00 | Cc1cnc(C(=O)N[C@@H](C)c2cc3cccc(C(F)(F)F)c3c(=O)n2-c2ccccc2)c(N)n1 [Compound 80] |
| 5.00 to 6.00 | C[C@H](NC(=O)c1cncc2cccnc12)c1cc2cccc(Cl)c2c(=O)n1-c1ccccc1 [Compound 45] |

What follows are molecules tested against T3, PI3K δ (Homo sapiens, UniProt O00329) (assay: PI3-Kinase Promega ADP-Glo Max assay). Settings: 20 nM kinase, 3 mM ATP, 500 uM diC8-PtdInsP.
T3 construct: purchased Millipore
Format: biochemical
Method: as §1, §2, §3

T3 sequence (O00329 whole entry): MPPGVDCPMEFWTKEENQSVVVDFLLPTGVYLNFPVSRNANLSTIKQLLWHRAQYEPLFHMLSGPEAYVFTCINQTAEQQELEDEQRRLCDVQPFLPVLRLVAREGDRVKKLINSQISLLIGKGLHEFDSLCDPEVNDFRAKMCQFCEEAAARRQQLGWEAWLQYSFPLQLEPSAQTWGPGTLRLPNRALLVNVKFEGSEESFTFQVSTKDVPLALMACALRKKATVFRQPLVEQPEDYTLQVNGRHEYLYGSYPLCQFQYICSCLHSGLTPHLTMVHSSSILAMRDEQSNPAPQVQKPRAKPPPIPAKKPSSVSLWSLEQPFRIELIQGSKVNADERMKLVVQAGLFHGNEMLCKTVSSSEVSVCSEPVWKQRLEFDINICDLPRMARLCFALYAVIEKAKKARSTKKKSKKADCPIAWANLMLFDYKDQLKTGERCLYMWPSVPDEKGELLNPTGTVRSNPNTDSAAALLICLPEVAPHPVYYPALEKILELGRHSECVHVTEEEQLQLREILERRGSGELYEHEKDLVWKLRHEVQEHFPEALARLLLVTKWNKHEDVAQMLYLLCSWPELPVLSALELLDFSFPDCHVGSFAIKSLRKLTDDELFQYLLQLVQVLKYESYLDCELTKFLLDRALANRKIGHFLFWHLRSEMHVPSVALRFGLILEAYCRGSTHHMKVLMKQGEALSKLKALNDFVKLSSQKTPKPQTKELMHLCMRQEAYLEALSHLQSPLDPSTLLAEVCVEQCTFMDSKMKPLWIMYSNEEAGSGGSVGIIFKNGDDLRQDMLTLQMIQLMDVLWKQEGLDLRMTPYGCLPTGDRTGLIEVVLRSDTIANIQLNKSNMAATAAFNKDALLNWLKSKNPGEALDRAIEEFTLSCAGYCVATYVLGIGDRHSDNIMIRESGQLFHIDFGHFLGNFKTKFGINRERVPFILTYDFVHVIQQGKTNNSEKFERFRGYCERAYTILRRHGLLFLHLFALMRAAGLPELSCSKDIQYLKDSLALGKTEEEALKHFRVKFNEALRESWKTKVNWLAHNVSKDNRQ
T3 sequence (P27986 whole entry partner): as the sequence (P27986 whole entry partner) above

| pIC50 | Structure (SMILES) |
| --- | --- |
| 6.00 to 7.00 | C[C@H](NC(=O)c1c(N)nn2cccnc12)c1cc2cccc(F)c2c(=O)n1-c1ccccc1 [Compound 191] |
| 5.00 to 6.00 | C[C@H](NC(=O)c1c(N)nn2cccnc12)c1cc2cccc(Cl)c2c(=O)n1C1CCCCC1 [Compound 196] |
| 5.00 to 6.00 | C[C@H](NC(=O)c1c(N)nn2cccnc12)c1cc2cccc(-c3ccncc3)c2c(=O)n1-c1ccccc1 [Compound 117] |
| 5.00 to 6.00 | COc1ncc(-c2cccc3cc([C@H](C)NC(=O)c4c(N)nn5cccnc45)n(-c4ccccc4)c(=O)c23)cn1 [Compound 128] |
| 6.00 to 7.00 | C[C@H](NC(=O)c1nc(-c2cccc(NS(C)(=O)=O)c2)cnc1N)c1cc2cccc(Cl)c2c(=O)n1C [Compound 183] |
| < 5.00 | Cc1cnc(C(=O)N[C@@H](C)c2cc3cccc(C(F)(F)F)c3c(=O)n2-c2ccccc2)c(N)n1 [Compound 80] |
| 6.00 to 7.00 | C[C@H](NC(=O)c1cncc2cccnc12)c1cc2cccc(Cl)c2c(=O)n1-c1ccccc1 [Compound 45] |

What follows are molecules tested against T4, PI3K γ (Homo sapiens, UniProt P48736) (assay: PI3-Kinase Promega ADP-Glo Max assay). Settings: 40 nM kinase, 3 mM ATP, 500 uM diC8-PtdInsP.
T4 construct: purchased Millipore
Format: biochemical
Method: Promega ADP-Glo Max assay kit (Cat. No. V7002) was utilized to determine IC50 values for α, β, δ and γ isoforms of human Class I PI3 kinases (Millipore). […] Reactions were incubated at room temperature for 2 hours followed by addition of 25 uL of stop solution. After a 40-minute incubation at room temperature, 50 uL of Promega detection mix was added followed by incubation for 1 hour at room temperature. Plates were then read on Envision plate reader in luminescence mode. Data was converted to % inhibition using the following equation below:
[formula] where S is the sample luminescence, Pos is a positive control without added PI3K, Neg is the negative control without added compound. Data was then plotted as % inhibition vs compound concentration.
as §3

T4 sequence (P48736 whole entry): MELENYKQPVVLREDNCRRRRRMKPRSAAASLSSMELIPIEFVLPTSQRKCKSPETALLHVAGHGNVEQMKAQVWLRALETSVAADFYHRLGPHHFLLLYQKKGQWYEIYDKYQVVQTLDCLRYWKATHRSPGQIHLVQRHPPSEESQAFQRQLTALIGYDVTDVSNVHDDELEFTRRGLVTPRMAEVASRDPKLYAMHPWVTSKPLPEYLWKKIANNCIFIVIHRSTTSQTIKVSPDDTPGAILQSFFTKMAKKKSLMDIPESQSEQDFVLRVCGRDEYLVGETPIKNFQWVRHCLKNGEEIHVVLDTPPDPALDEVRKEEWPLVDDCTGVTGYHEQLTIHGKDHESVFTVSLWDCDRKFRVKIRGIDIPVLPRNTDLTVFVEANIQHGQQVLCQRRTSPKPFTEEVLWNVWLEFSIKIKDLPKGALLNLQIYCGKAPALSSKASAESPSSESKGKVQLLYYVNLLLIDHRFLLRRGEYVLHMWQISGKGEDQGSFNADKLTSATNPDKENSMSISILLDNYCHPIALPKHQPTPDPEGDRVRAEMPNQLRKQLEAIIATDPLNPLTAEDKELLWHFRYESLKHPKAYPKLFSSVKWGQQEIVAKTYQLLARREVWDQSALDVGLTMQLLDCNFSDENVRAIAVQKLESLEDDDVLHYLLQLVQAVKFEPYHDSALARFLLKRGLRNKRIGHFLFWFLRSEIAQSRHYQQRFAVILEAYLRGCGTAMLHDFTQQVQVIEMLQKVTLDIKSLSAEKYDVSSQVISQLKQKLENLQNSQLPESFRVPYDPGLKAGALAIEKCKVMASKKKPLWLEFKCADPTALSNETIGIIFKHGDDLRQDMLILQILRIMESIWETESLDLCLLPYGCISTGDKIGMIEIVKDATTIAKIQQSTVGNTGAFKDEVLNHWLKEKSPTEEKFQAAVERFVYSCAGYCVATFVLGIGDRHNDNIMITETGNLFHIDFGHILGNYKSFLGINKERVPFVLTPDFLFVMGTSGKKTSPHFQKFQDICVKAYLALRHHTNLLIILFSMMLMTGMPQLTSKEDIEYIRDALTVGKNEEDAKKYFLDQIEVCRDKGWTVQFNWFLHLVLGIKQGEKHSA

| pIC50 | Structure (SMILES) |
| --- | --- |
| > 7.00 | C[C@H](NC(=O)c1c(N)nn2cccnc12)c1cc2cccc(F)c2c(=O)n1-c1ccccc1 [Compound 191] |
| 5.00 to 6.00 | C[C@H](NC(=O)c1c(N)nn2cccnc12)c1cc2cccc(Cl)c2c(=O)n1C1CCCCC1 [Compound 196] |
| 6.00 to 7.00 | C[C@H](NC(=O)c1c(N)nn2cccnc12)c1cc2cccc(-c3ccncc3)c2c(=O)n1-c1ccccc1 [Compound 117] |
| 6.00 to 7.00 | COc1ncc(-c2cccc3cc([C@H](C)NC(=O)c4c(N)nn5cccnc45)n(-c4ccccc4)c(=O)c23)cn1 [Compound 128] |
| > 7.00 | C[C@H](NC(=O)c1nc(-c2cccc(NS(C)(=O)=O)c2)cnc1N)c1cc2cccc(Cl)c2c(=O)n1C [Compound 183] |
| 5.00 to 6.00 | Cc1cnc(C(=O)N[C@@H](C)c2cc3cccc(C(F)(F)F)c3c(=O)n2-c2ccccc2)c(N)n1 [Compound 80] |
| 5.00 to 6.00 | C[C@H](NC(=O)c1cncc2cccnc12)c1cc2cccc(Cl)c2c(=O)n1-c1ccccc1 [Compound 45] |

The molecules below were run against T5, Raw264.7 p110 γ (Mus musculus, UniProt Q9JHG7) (assay: Raw264.7 p110 γ cellular assay (phospho-AKT)). Settings: serum-starved RAW264.7 cells stimulated with C5a.
T5 construct: reduction of phospho-AKT in stimulated RAW 264.7 cells; endogenous in cells; host or cells: RAW264.7 macrophages
Format: cell-based
Description: (b) PI3K-γ Selective Assay
Briefly, serum-starved PAW264.7 cells are stimulated with a known GPCR agonist C5a. […] Cells can be treated with test compounds prior to, simultaneously with, or subsequent to the stimulation by C5a. RAW 264.7 cells respond to the complement component fragment C5a through activation of the C5a receptor, and the C5a receptor activates macrophages and induces cell migration.

| pIC50 | Structure (SMILES) |
| --- | --- |
| > 7.00 | C[C@H](NC(=O)c1c(N)nn2cccnc12)c1cc2cccc(F)c2c(=O)n1-c1ccccc1 [Compound 191] |
| > 7.00 | C[C@H](NC(=O)c1c(N)nn2cccnc12)c1cc2cccc(Cl)c2c(=O)n1C1CCCCC1 [Compound 196] |
| > 7.00 | C[C@H](NC(=O)c1c(N)nn2cccnc12)c1cc2cccc(-c3ccncc3)c2c(=O)n1-c1ccccc1 [Compound 117] |
| > 7.00 | COc1ncc(-c2cccc3cc([C@H](C)NC(=O)c4c(N)nn5cccnc45)n(-c4ccccc4)c(=O)c23)cn1 [Compound 128] |
| > 7.00 | C[C@H](NC(=O)c1nc(-c2cccc(NS(C)(=O)=O)c2)cnc1N)c1cc2cccc(Cl)c2c(=O)n1C [Compound 183] |
| 6.00 to 7.00 | Cc1cnc(C(=O)N[C@@H](C)c2cc3cccc(C(F)(F)F)c3c(=O)n2-c2ccccc2)c(N)n1 [Compound 80] |
| > 7.00 | C[C@H](NC(=O)c1cncc2cccnc12)c1cc2cccc(Cl)c2c(=O)n1-c1ccccc1 [Compound 45] |

The molecules below were run against RAJI p110 δ (Homo sapiens, UniProt O00329) (assay: RAJI p110 δ cellular assay (phospho-AKT)). Settings: not given.
Chain of RAJI p110 δ (O00329 whole entry): as the sequence (O00329 whole entry) above
Chain of RAJI p110 δ (P27986 whole entry partner): as the sequence (P27986 whole entry partner) above

| pIC50 | Structure (SMILES) |
| --- | --- |
| > 7.00 | C[C@H](NC(=O)c1c(N)nn2cccnc12)c1cc2cccc(F)c2c(=O)n1-c1ccccc1 [Compound 191] |
| > 7.00 | C[C@H](NC(=O)c1c(N)nn2cccnc12)c1cc2cccc(Cl)c2c(=O)n1C1CCCCC1 [Compound 196] |
| > 7.00 | C[C@H](NC(=O)c1c(N)nn2cccnc12)c1cc2cccc(-c3ccncc3)c2c(=O)n1-c1ccccc1 [Compound 117] |
| > 7.00 | COc1ncc(-c2cccc3cc([C@H](C)NC(=O)c4c(N)nn5cccnc45)n(-c4ccccc4)c(=O)c23)cn1 [Compound 128] |
| > 7.00 | C[C@H](NC(=O)c1nc(-c2cccc(NS(C)(=O)=O)c2)cnc1N)c1cc2cccc(Cl)c2c(=O)n1C [Compound 183] |
| 5.00 to 6.00 | Cc1cnc(C(=O)N[C@@H](C)c2cc3cccc(C(F)(F)F)c3c(=O)n2-c2ccccc2)c(N)n1 [Compound 80] |
| > 7.00 | C[C@H](NC(=O)c1cncc2cccnc12)c1cc2cccc(Cl)c2c(=O)n1-c1ccccc1 [Compound 45] |
